The values below are quoted from earlier work in patent US20120058942A1, “METHODS FOR CONTROLLING BLOOD-GLUCOSE LEVELS IN INSULIN-REQUIRING SUBJECTS” (priority 2010, published 2012).

No end group written: not given here.

The conditions of data set [1]: humans with diabetes mellitus.
The conditions of data set [2]: human volunteers, insulin-treated T1D.

“Glucagon-like peptide-1 (HAEGTFTSDVSSYLEGQAAKEFIAWLVKGR; ends and bridges not checked; UniProt P01275 98-127, looked up) [GLP-1, incretin; post-translational product of the glucagon gene in the intestinal L-cell]”: the “stimulation of insulin secretion” value in data set [1] was “capable of stimulating insulin secretion”. For the same substance, in data set [2] (continued insulin by IIT), the “rise in blood glucose that accompanies absorption of a standard meal” value was “powerfully restrict the rise in blood glucose”. In addition, in data set [2] (standard meal), the “absorption of the meal” value was “delay in absorption of the meal” and the secretion of glucagon result is on record as “suppression of secretion of glucagon”.

Turning to “gastric-inhibitory polypeptide (YAEGTFISDYSIAMDKIHQQDFVNWLLAQKGKKNDWKHNITQ; Gastric inhibitory polypeptide; UniProt P09681 52-93, looked up) [GIP, insulin-stimulating hormone of the entero-insular axis]”, the “stimulation of insulin secretion” value in data set [1] was “failed to stimulate insulin secretion”.
